For data set [1], the system named is TMPRSS2-ERG fusion transcript. As to the kind of experiment: TMPRSS2-ERG fusion transcript expression (QPCR) in NCI-H660 cells. On the procedure: (§1) Fusion status was determined by ERG break-apart FISH assay (Pemer, et al., Cancer Res. 66:8337-8341 (2006)) and QPCR (for cases not assessable by FISH). An aliquot of the RNA used for DASL was used for QPCR. cDNA was synthesized as above. TMPRSS2-ERG fusion product was determined using SYBR green assay (Qiagen) with TMPRSS2-ERG_f and TMPRSS2-ERG_r primers (Tomlins, et al., Science 310:644-648 (2005)). RPL13A was used for normalization. For estrogen experiments, cDNA was synthesized using the Omniscript RT kit (Qiagen) and HMBS was used for normalization. Relative quantitation was carried out using the comparative Ct method.
(§2) The prostate cancer cell lines NCI-H660 and VCaP were maintained according to ATCC instructions. The cells were hormone-deprived by culture for three days in their respective phenol red-free media (for NCI-H660 without E2 and hydrocortisone) supplemented with 5% CDT-FBS (Invitrogen). Cells were challenged with hormones or vehicle for 12, 24 or 48 hours.
(§3) Reagents were used at a final concentration of 10^−8M.

Data set [2] deals with TMPRSS2-ERG fusion transcript. Put plainly: TMPRSS2-ERG fusion transcript expression in ERβ-overexpressing VCaP cells. On the procedure:
as §1, §2, §3
VCaP cells were transiently transfected with ERβ containing plasmid using Lipofectamine2000 (Invitrogen) for 6 h. Transfection medium was removed after 6 h, cells were washed in PBS twice, and phenol red-free DMEM (Cellgro) supplemented with 5% CDT-FBS (Invitrogen) was added. Cells were challenged with hormones or vehicle 48 hours after transfection. NCI-H660 cells were transiently transfected with smart pool siRNA against ERβ (Dharmacon).

Data set [3] relates to NCI-H660 prostate cancer cell line. As to the kind of experiment: Cell growth assay (Cell Titer-Glo luminescent assay). The format is cell-based. The following applies: final concentration 10^−8M, relative cell number 2-12 d. The method, then: The prostate cancer cell lines NCI-[…] and VCaP were maintained according to ATCC instructions. […] NCI-[…] cells were seeded in a 96-well plate ( 5×10^3 cells/well) and stimulated with hormone or vehicle alone. Relative cell number was determined before (time 0 used for normalization) and after stimulation (2, 3, 6, 8, 10, 12 d) using the Cell Titer-Glo luminescent assay (Promega).

Data set [4] relates to TMPRSS2-ERG fusion transcript. Put plainly: TMPRSS2-ERG fusion transcript expression in non-ERβ-overexpressing VCaP cells. On the procedure: as §1, §2, §3
[5] abbreviates: ERβ-overexpressing VCaP cells (VCaP-ERβ, ERα negative), final concentration 10^−8M.
[6] abbreviates: NCI-H660 cells, final concentration 10^−8M, 12, 24 or 48 hours.

Structures are written as SMILES. Entries after “also recorded” stand apart in the source; their conditions may differ. Read-outs that look alike come from different tables or passages of the source.

With `Oc1ccc(/C=C/c2cc(O)cc(O)c2)cc1` [resveretrol], in data set [1], the TMPRSS2-ERG expression entry is listed as “reduced the expression of the fusion transcript”.

Consider `C[C@]12CC[C@@H]3c4ccc(O)cc4CC[C@H]3[C@@H]1CC[C@@H]2O` [E2, 17β-estradiol], for which the “TMPRSS2-ERG fusion transcript expression” value in data set [2] (setting [5]) is recorded as “down-regulation of the TMPRSS2-ERG fusion transcript”; in data set [4] (non-ERβ-overexpressing VCaP cells, final concentration 10^−8M), “down-regulation was not seen”. The “growth of NCI-H660 cells” value in data set [3] is “significantly inhibited”.

For `O=C(c1ccc(OCCN2CCCCC2)cc1)c1c(-c2ccc(O)cc2)sc2cc(O)ccc12` [raloxifene], the TMPRSS2-ERG expression result in data set [1] (setting [6]) is “up-regulation of TMPRSS2-ERG”. Further, the “TMPRSS2-ERG fusion transcript expression” value in data set [2] (setting [5]) is “remarkable down-regulation of the fusion transcript”.

Turning to `C[C@]12CC[C@@H]3c4ccc(O)cc4C[C@@H](CCCCCCCCC[S+]([O-])CCCC(F)(F)C(F)(F)F)[C@H]3[C@@H]1CC[C@@H]2O` (stereo partly drawn) [fulvestrant], the TMPRSS2-ERG expression entry in data set [1] (setting [6]) is given as “reduced the expression of the fusion transcript”.

For the molecule `N#CC(Cc1ccc(O)cc1)c1ccc(O)cc1` (stereo not drawn) [DPN, diarylpropionitrile], the TMPRSS2-ERG expression result in data set [1] (setting [6]) is on record as “suppressed expression of the fusion; also recorded: significantly decreased TMPRSS2-ERG expression”. Moreover, the “TMPRSS2-ERG fusion transcript expression” value in data set [2] is “down-regulation of the TMPRSS2-ERG fusion transcript”; in data set [4], “down-regulation was not seen”. The “growth of NCI-H660 cells” value in data set [3] is reported as “suppressed growth”.

On to `CCCc1c(-c2ccc(O)cc2)nn(-c2ccc(O)cc2)c1-c1ccc(O)cc1` [PPT, propylpyrazole triol], for which the TMPRSS2-ERG expression entry in data set [1] is on record as “increased TMPRSS2-ERG expression”.
